Assays:
[1] = target: T1, αVβ3 integrin (Homo sapiens, UniProt P05106+P06756); assay: Osteopontin-αVβ3 Cell Attachment Test Procedure; format: cell-based; conditions: for IC50: attachment of cells to osteopontin, read-out: (αVβ3) IC50 CELL ATTACHMENT; for remaining activity at 20 µM / remaining activity at 100 µM: % of maximal attachment, read-out: (αVβ3) CELL ATTACHMENT, % @ concentration
T1 construct: αVβ3-expressing cell lines are maintained by standard tissue culture techniques; endogenous in cells; host or cells: αVβ3-expressing cell lines
T1 sequence (P06756 31-889 limits assumed): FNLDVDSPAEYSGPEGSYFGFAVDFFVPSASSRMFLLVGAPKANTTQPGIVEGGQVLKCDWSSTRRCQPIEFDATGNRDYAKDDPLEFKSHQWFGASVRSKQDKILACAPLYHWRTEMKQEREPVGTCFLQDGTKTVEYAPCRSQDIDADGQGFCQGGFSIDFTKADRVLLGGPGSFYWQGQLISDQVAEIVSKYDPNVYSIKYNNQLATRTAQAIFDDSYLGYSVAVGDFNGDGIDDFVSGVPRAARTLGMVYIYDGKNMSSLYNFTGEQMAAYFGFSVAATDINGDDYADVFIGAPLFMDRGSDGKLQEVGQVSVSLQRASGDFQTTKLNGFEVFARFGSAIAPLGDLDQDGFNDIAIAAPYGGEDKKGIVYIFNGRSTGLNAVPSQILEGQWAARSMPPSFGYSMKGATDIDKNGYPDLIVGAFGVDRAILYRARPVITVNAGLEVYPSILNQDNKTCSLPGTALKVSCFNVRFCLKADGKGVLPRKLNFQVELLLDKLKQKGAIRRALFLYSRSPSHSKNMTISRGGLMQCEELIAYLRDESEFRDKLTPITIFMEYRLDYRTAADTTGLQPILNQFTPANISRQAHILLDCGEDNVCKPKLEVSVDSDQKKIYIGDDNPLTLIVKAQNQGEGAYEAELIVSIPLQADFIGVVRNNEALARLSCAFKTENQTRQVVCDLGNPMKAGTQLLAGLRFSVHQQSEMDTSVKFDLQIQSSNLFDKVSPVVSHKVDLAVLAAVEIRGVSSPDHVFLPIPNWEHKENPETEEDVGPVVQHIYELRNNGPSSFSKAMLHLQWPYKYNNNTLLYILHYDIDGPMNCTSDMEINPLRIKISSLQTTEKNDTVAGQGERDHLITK
T1 sequence (P06756 891-1048 partner limits assumed): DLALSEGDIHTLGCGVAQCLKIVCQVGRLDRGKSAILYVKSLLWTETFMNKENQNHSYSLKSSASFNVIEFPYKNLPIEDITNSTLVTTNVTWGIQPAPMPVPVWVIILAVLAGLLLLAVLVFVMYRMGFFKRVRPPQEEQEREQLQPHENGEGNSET
T1 sequence (P05106 27-788): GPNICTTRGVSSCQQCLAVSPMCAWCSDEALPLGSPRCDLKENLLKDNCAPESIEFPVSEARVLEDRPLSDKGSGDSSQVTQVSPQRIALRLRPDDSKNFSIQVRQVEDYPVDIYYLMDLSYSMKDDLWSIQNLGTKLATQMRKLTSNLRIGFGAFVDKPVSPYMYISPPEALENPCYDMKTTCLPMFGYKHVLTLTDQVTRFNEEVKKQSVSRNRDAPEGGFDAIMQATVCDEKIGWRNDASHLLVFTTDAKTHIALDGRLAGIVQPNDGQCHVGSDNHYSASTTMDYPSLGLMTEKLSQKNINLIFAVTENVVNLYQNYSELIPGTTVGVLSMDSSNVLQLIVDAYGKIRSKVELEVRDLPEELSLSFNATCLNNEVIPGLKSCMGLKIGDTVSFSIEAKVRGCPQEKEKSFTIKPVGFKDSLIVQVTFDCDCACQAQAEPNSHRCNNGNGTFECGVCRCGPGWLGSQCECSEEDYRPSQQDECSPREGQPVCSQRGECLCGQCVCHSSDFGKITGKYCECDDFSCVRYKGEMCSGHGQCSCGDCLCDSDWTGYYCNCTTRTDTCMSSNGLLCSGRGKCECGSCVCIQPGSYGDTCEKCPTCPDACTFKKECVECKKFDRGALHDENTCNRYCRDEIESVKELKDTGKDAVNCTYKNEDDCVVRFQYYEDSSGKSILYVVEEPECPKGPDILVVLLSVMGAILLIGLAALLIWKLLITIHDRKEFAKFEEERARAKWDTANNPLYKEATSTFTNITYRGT
Procedure: Osteopontin-αVβ3 Cell Attachment Test Procedure
Measuring the effect of compounds on the RGD-dependent attachment of cells to osteopontin mediated by the αVβ3 integrin.
Following incubation the wells were aspirated and washed once with D-PBS; plates can either be used immediately or stored for up to 1 week at 4° C. Prior to assay, the wells were blocked with 1% bovine serum albumin (BSA) in cell suspension media for 1 hour at 37° C. Following the blocking period, wells were aspirated and washed once with D-PBS.
αVβ3-expressing cell lines are maintained by standard tissue culture techniques. […] The cells were pelleted by low-speed centrifugation and washed three times with 0.5 mg/mL trypsin inhibitor in D-PBS (Sigma). The final cell pellet was resuspended in cell suspension media at a concentration of 10^6 cells/mL.
Incubation: 100 μL of diluted test compound was added to osteopontin-coated wells (in triplicate) followed by 100 μL of cell suspension; background cell attachment was determined in uncoated wells. The plate was incubated at 25° C. in a humidified air atmosphere for 1.5 hours. Following the incubation period, the wells were gently aspirated and washed once with D-PBS.
Cell Number Detection: The number of cells attached was determined by an MTT dye conversion assay (Promega) according to the manufacturer's instructions. Briefly, MTT dye was diluted in cell suspension media (15:85) and 100 μL was added to each well. […] The assay plates were covered and incubated at 37° C. in a humidified air atmosphere overnight.
The individual well optical density was expressed as a percentage of the maximal attachment (% Max) wells minus background attachment, and reported as the mean ±standard deviation.

[2] = target: T2, αIIbβ3 integrin (Homo sapiens, UniProt P05106+P08514); assay: ADP-Induced Platelet Aggregation; format: cell-based; conditions: Table VII; for IC50: ADP 20 uM, human platelets, read-out: Platelet Aggregation αIIbβ3 IC50; for remaining activity at 200 µM: percent of maximal aggregation
T2 construct: Human Platelets: Platelet-enriched plasma was obtained commercially from a donor pool; from tissue; host or cells: human platelet-rich plasma from a commercial donor pool
T2 sequence (P08514 32-887 limits assumed): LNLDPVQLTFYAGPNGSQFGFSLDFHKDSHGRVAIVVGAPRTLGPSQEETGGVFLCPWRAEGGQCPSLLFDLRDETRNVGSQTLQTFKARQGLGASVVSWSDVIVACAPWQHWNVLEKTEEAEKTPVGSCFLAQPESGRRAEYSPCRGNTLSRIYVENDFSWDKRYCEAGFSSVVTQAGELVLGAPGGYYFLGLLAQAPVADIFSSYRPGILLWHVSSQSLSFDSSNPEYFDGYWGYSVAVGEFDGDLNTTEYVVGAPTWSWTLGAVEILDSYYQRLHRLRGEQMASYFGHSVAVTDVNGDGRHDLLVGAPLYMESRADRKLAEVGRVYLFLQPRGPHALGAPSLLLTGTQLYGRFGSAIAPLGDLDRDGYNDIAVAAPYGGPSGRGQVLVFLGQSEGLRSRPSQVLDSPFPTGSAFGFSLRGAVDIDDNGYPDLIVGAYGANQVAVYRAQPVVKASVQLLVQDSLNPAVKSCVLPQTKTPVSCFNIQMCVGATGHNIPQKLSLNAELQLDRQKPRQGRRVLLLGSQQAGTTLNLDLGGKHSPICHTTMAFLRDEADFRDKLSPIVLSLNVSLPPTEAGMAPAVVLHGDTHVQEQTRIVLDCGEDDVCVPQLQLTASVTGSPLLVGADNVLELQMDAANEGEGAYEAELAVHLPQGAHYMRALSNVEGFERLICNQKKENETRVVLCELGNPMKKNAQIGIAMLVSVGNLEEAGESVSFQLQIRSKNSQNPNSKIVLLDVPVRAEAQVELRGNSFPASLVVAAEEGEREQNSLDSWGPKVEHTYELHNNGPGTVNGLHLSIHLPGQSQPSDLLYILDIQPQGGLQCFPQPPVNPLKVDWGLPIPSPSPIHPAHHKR
T2 sequence (P08514 891-1039 partner limits assumed): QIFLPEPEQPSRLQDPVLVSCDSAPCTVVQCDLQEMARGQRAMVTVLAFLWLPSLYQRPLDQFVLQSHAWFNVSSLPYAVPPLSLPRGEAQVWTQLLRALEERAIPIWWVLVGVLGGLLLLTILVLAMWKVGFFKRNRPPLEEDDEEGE
T2 sequence (P05106 27-788): as the sequence (P05106 27-788) above
Procedure: Measurement of the Effect of Compounds on ADP-Induced Platelet Aggregation
Measuring the effect of compounds on ADP-induced platelet aggregation mediated by a fibrinogen-αIIbβ3 integrin interaction.
Human Platelets: Platelet-enriched plasma was obtained commercially from a donor pool. The plasma was tested prior to shipment and found to be negative for HIV, HCV and Hepatitis B. Platelet-rich plasma (PRP) was obtained by diluting plasma to an approximate final concentration of 3×10(6) platelets per mL in platelet poor plasma (PPP). PPP was the supernatant of a lowspeed centrifugation of plasma.
Adenosine diphosphate (ADP): ADP was obtained commercially and diluted to 1 mM (stock solution) in distilled, deionized water (ddH2O).
Incubation: PRP and PPP were prewarmed in a water bath at 37° C. […] PRP plus sample compound in a final volume of 500 uL was added to a pre-warmed cuvette in a ChronoLog aggregometer. A control containing PRP and 5 uL of vehicle was treated similarly to the test cuvette; final vehicle concentration was 1%. The two cuvettes were incubated with stirring (1000 rpm) at 37° C. for 5 minutes. Five hundred microliters of PPP was used as a reference (100% aggregation).
Aggregation: To begin the test, ADP was added yielding a final concentration of 20 uM to both samples (plus and minus sample compound). Light transmittance was monitored continuously and compared to the reference cuvette. After five minutes, the test was terminated and the slope and maximal amplitude of the resulting aggregation plot was calculated by the aggregometer.
The percent of maximal aggregation is the ratio of the maximal aggregations of the sample cuvette to the control multiplied by 100 (% Max) and reported as the mean+−standard deviation.

[3] = target: T3, Vitronectin Receptor (αVβ3) (Homo sapiens, UniProt P05106+P06756); assay: Vitronectin Receptor (αVβ3) Binding Test Procedure; conditions: for IC50: read-out: (αVβ3) IC50 RECEPTOR BINDING
T3 construct: expressed in transfected cells; host or cells: 512P5 cells (plasma membrane preparation)
T3 sequence (P06756 31-889 limits assumed): as the sequence (P06756 31-889 limits assumed) above
T3 sequence (P06756 891-1048 partner limits assumed): as the sequence (P06756 891-1048 partner limits assumed) above
T3 sequence (P05106 27-788): as the sequence (P05106 27-788) above

[4] = test system: osteoclasts; assay: Osteoclast Bone Pitting; format: cell-based, rat; conditions: Rattus norvegicus, Osteoclast
Procedure: Osteoclast Bone Pitting The test procedure was conducted as described by R. J. Murrills and D. W. […] At this pH the adherent osteoclasts excavate an adequate number of resorption pits for assay purposes. Slices were fixed in 2.5% glutaraldehyde and osteoclasts counted following tartrate-resistant acid phosphatase staining. […] All cells were stripped from the slice by sonication on 0.25M NH4OH and the resorption pits formed by the osteoclasts during the experiment stained with toluidine blue. Resorption pits were quantified by manually counting. The experiments were conducted according to a block design with osteoclasts from each animal exposed to each treatment. Three replicate slices were used per treatment per animal, such that a total of 96 slices were examined for an experiment involving four animals and eight treatments (including control). Several parameters were recorded on a “per slice” basis: number of pits, number of osteoclasts, number of pits per osteoclast, number of fibroblast-like bone cells. SAS or JMP statistical software were used for statistical analysis. […] IC50s were calculated using dose-response curves.

[5] = % Max = percentage of the specific binding, read-out: (αVβ3) RECEPTOR BINDING, % @ concentration

Row | remaining activity at 100 µM [1] [%] | Compound | IC50 [1] [µM] | melting point | IC50 [3] [µM] | remaining activity at 200 µM [2] [%] | also measured
1 |  | N=C(N)NCCCOc1ccc2c(c1)CCCC(CC(=O)O)C2.O=C(O)C(F)(F)F (stereo not shown) [Example 62, [2-(3-Guanidino-propoxy)-6,7,8,9-tetrahydro-5H-benzocyclohepten-6-yl]-acetic Acid Trifluoroacetate] | 14 | 109 to 114 °C | 1.4 |  | IC50 [2]: 169 µM
2 |  | N=C(N)NCCCCOc1ccc2c(c1)NC(=O)C(CC(=O)O)C2.O=C(O)C(F)(F)F (stereo not shown) [Example 84, [7-(4-Guanidino-butoxy)-2-oxo-1,2,3,4-tetrahydro-quinolin-3-yl]-acetic Acid Trifluoroacetate] | 24.5 | 189 to 191 °C | 11.4 | 62 | inhibition at 223 µM ([4]; @ 223 μM): 57%
3 |  | Cl.N=C(N)NCCCOc1ccc2c(c1)NC(=O)C(CC(=O)O)C2 (stereo not shown) [Example 86, [7-(3-Guanidino-propoxy)-2-oxo-1,2,3,4-tetrahydro-quinolin-3-yl]-acetic Acid Hydrochloride] | 21.1 | 227 to 229 °C | 7.3 | 80.9 | inhibition at 280 µM ([4]; @ 280 μM): 70%
4 |  | Cl.N=C(N)NCCC#Cc1ccc2c(c1)NC(=O)C(CC(=O)O)C2 (stereo not shown) [Example 100, [7-(4-Guanidino-but-1-ynyl)-2-oxo-1,2,3,4-tetrahydro-quinolin-3-yl]-acetic Acid Hydrochloride] | 79 | 130 to 180 °C |  |  | IC50 [2]: 216 µM; remaining activity at 100 µM ([3]; @ 100 μM, % Max = percentage of the specific binding, read-out: (αVβ3) RECEPTOR BINDING, % @ concentration): 30.9%; inhibition at 264 µM ([4]; @ 264 μM): 38%
5 |  | N=C(N)NCCC=Cc1ccc2c(c1)NC(=O)C(CC(=O)O)C2.O=C(O)C(F)(F)F (stereo not shown) [Example 112, [7-(4-Guanidino-but-1-enyl)-2-oxo-1,2,3,4-tetrahydro-quinolin-3-yl]-acetic Acid Trifluoroacetate] | 19.7 | 173 to 176 °C | 7 | 80.4 | 
6 |  | N=C(N)NCCCC=Cc1ccc2c(c1)NC(=O)C(CC(=O)O)C2.O=C(O)C(F)(F)F (stereo not shown) [Example 113, [7-(5-Guanidino-pent-1-enyl)-2-oxo-1,2,3,4-tetrahydro-quinolin-3-yl]-acetic Acid Trifluoroacetate] | 17.8 | 162 to 165 °C | 4 | 77.1 | 
7 |  | N=C(N)NCCCCc1ccc2c(c1)NC(=O)C(CC(=O)O)C2.O=C(O)C(F)(F)F (stereo not shown) [Example 121, [7-(4-Guanidino-butyl)-2-oxo-1,2,3,4-tetrahydro-quinolin-3-yl]-acetic Acid Trifluoroacetate] | 15.1 | 157 to 160 °C | 2.6 | 62 | inhibition at 228 µM ([4]; @ 228 μM): 30%
8 |  | N=C(N)NCCCCCc1ccc2c(c1)NC(=O)C(CC(=O)O)C2.O=C(O)C(F)(F)F (stereo not shown) [Example 122, [7-(5-Guanidino-pentyl)-2-oxo-1,2,3,4-tetrahydro-quinolin-3-yl]-acetic Acid Trifluoroacetate] | 8.3 | 148 to 151 °C | 3.6 |  | IC50 [2]: 57 µM; IC50 ([4]; read-out: BONE PITTING INHIBITION IC50): 159 µM
9 |  | CCN1C(=O)C(CC(=O)O)Cc2ccc(OCCCNC(=N)N)cc21.O=C(O)C(F)(F)F (stereo not shown) [Example 158, [1-Ethyl-7-(3-guanidino-propoxy)-2-oxo-1,2,3,4-tetrahydro-quinolin-3-yl]-acetic Acid Trifluoroacetate] |  | 165 to 166 °C |  |  | inhibition at 216 µM ([4]; @ 216 μM): 13%
10 |  | N=C(N)NCCCOc1ccc2c(c1)N(Cc1ccccc1)C(=O)C(CC(=O)O)C2 (stereo not shown) [Example 172, [1-Benzyl-7-(3-guanidino-propoxy)-2-oxo-1,2,3,4-tetrahydro-quinolin-3-yl]-acetic Acid] | 27.3 | 172 to 173 °C | 2.7 | 71.5 | inhibition at 190 µM ([4]; @ 190 μM): 15%
11 | 108 | N=C(N)NCCCOc1ccc2c(c1)CC(CCC(=O)O)C(=O)N2 (stereo not shown) [Example 223, 3-[6-(3-Guanidino-propoxy)-2-oxo-1,2,3,4-tetrahydro-quinolin-3-yl]-propionic Acid] |  | 168 to 172 °C |  |  | remaining activity at 20 µM [1]: 104%; IC50 [2]: 54 µM; remaining activity at 30 µM [3, 5]: 100%; inhibition at 226 µM ([4]; @ 226 μM): -72%
12 | 100 | N=C(N)NCCOc1ccc2c(c1)NC(=O)C(CCC(=O)O)C2 (stereo not shown) [Example 230, 3-[7-(2-Guanidino-ethoxy)-2-oxo-1,2,3,4-tetrahydro-quinolin-3-yl]-propionic Acid] |  | 193 to 196 °C |  | 95.2 | inhibition at 230 µM ([4]; @ 230 μM): 15%
13 | 93 | N=C(N)NCCCOc1ccc2c(c1)NC(=O)C(CCC(=O)O)C2 (stereo not shown) [Example 231, 3-[7-(3-Guanidino-propoxy)-2-oxo-1,2,3,4-tetrahydro-quinolin-3-yl]-propionic Acid] |  | 157 to 159 °C |  | 78.3 | remaining activity at 30 µM [3, 5]: 55.9%
14 | 114 | N=C(N)NCCCOc1ccc2[nH]c(=O)c(CC(=O)O)cc2c1 [Example 237, [6-(3-Guanidino-propoxy)-2-oxo-1,2-dihydro-quinolin-3-yl]-acetic Acid] |  | 207 to 212 °C (dec.) |  | 96.5 | remaining activity at 20 µM [1]: 86.2%; remaining activity at 30 µM [3, 5]: 100%

Row | Compound | remaining activity at 100 µM [1] [%] | IC50 [1] [µM] | melting point | IC50 [3] [µM] | remaining activity at 200 µM [2] [%] | also measured
15 | CCn1c(=O)c(CC(=O)O)cc2ccc(OCCCNC(=N)N)cc21.O=C(O)C(F)(F)F [Example 149, [1-Ethyl-7-(3-guanidino-propoxy)-2-oxo-1,2-dihydro-quinolin-3-yl]-acetic Acid Trifluoroacetate] | 71.5 |  | 131 °C |  | 90.2 | remaining activity at 20 µM [1]: 96.3%
16 | Cl.N=C(N)NCCCCOc1ccc2cc(CC(=O)O)c(=O)[nH]c2c1 [Example 184, [7-(4-Guanidino-butoxy)-2-oxo-1,2-dihydro-quinolin-3-yl]-acetic Acid Hydrochloride] | 85 |  | 216.5 to 219 °C |  | 85.5 | remaining activity at 20 µM [1]: 108%; remaining activity at 30 µM [3, 5]: 67.5%; inhibition at 271 µM ([4]; @ 271 μM): 37%

From US20030109523A1, “Bicyclic antagonists selective for the alphavbeta3 integrin” (Wyeth, priority 1999, published 2003)
